Data from ChEMBL document CHEMBL3046897, “Synthesis of 3-{4-[4-dimethylamino-6-(4-methyl-2-oxo-2H-chromen-7-yloxy)-[1,3,5]triazin-2-ylamino]-phenyl}-2-phenyl-5-(4-pyridin-2-yl-piperazin-1-ylmethyl)-thiazolidin-4-one and their biological evaluation” (2012).
In brackets after ≈: the same amount, converted by molar mass.

Columns and labels:
Type in all cases: functional
Klebsiella pneumoniae [1] = experiment: Antibacterial activity against Klebsiella pneumoniae at 100 ug/disk after 24 hr by paper disk diffusion method; conditions: read-out: IZ
Escherichia coli [2] = experiment: Antibacterial activity against Escherichia coli at 100 ug/disk after 24 hr by paper disk diffusion method; conditions: read-out: IZ
Aspergillus clavatus [3] = experiment: Antifungal activity against Aspergillus clavatus at 100 ug/disc after 48 hr by paper disk diffusion method; conditions: read-out: IZ
Aspergillus clavatus [4] = experiment: Antifungal activity against Aspergillus clavatus after 48 hr by agar streak dilution method
Klebsiella pneumoniae [5] = experiment: Antibacterial activity against Klebsiella pneumoniae after 24 hr by agar streak dilution method
Staphylococcus aureus [6] = experiment: Antibacterial activity against Staphylococcus aureus after 24 hr by agar streak dilution method
Escherichia coli [7] = experiment: Antibacterial activity against Escherichia coli after 24 hr by agar streak dilution method
Aspergillus fumigatus [8] = experiment: Antifungal activity against Aspergillus fumigatus after 48 hr by agar streak dilution method
Shigella flexneri [9] = experiment: Antibacterial activity against Shigella flexneri at 100 ug/disc after 24 hr by paper disk diffusion method; conditions: read-out: IZ
Candida albicans [10] = experiment: Antifungal activity against Candida albicans after 48 hr by agar streak dilution method
Aspergillus fumigatus [11] = experiment: Antifungal activity against Aspergillus fumigatus at 100 ug/disc after 48 hr by paper disk diffusion method; conditions: read-out: IZ
Pseudomonas aeruginosa [12] = experiment: Antibacterial activity against Pseudomonas aeruginosa at 100 ug/disk after 24 hr by paper disk diffusion method; conditions: read-out: IZ
Proteus vulgaris [13] = experiment: Antibacterial activity against Proteus vulgaris after 24 hr by agar streak dilution method
Bacillus subtilis [14] = experiment: Antibacterial activity against Bacillus subtilis at 100 ug/disk after 24 hr by paper disk diffusion method; conditions: read-out: IZ
Aspergillus niger [15] = experiment: Antifungal activity against Aspergillus niger after 48 hr by agar streak dilution method
Candida albicans [16] = experiment: Antifungal activity against Candida albicans at 100 ug/disk after 48 hr by paper disk diffusion method; conditions: read-out: IZ
Pseudomonas aeruginosa [17] = experiment: Antibacterial activity against Pseudomonas aeruginosa after 24 hr by agar streak dilution method
Salmonella typhi [18] = experiment: Antibacterial activity against Salmonella enterica subsp. enterica serovar Typhi after 24 hr by agar streak dilution method
Staphylococcus aureus [19] = experiment: Antibacterial activity against Staphylococcus aureus at 100 ug/disc after 24 hr by paper disk diffusion method; conditions: read-out: IZ
Proteus vulgaris [20] = experiment: Antibacterial activity against Proteus vulgaris at 100 ug/disk after 24 hr by paper disk diffusion method; conditions: read-out: IZ
Salmonella typhi [21] = experiment: Antibacterial activity against Salmonella enterica subsp. enterica serovar Typhi at 100 ug/disk after 24 hr by paper disk diffusion method; conditions: read-out: IZ
Bacillus subtilis [22] = experiment: Antibacterial activity against Bacillus subtilis after 24 hr by agar streak dilution method
Aspergillus niger [23] = experiment: Antifungal activity against Aspergillus niger at 100 ug/disk after 48 hr by paper disk diffusion method; conditions: read-out: IZ
Shigella flexneri [24] = experiment: Antibacterial activity against Shigella flexneri after 24 hr by agar streak dilution method

| Compound | zone of inhibition at 100 µg/disc (Klebsiella pneumoniae [1]) [mm] | zone of inhibition at 100 µg/disc (Escherichia coli [2]) [mm] | zone of inhibition at 100 µg/disc (Aspergillus clavatus [3]) [mm] | MIC (Aspergillus clavatus [4]) [µg/mL] | MIC (Klebsiella pneumoniae [5]) [µg/mL] | MIC (Staphylococcus aureus [6]) [µg/mL] | MIC (Aspergillus fumigatus [8]) [µg/mL] | zone of inhibition at 100 µg/disc (Shigella flexneri [9]) [mm] | MIC (Candida albicans [10]) [µg/mL] | zone of inhibition at 100 µg/disc (Aspergillus fumigatus [11]) [mm] | zone of inhibition at 100 µg/disc (Pseudomonas aeruginosa [12]) [mm] | MIC (Proteus vulgaris [13]) [µg/mL] | zone of inhibition at 100 µg/disc (Bacillus subtilis [14]) [mm] | MIC (Aspergillus niger [15]) [µg/mL] | zone of inhibition at 100 µg/disc (Candida albicans [16]) [mm] | MIC (Pseudomonas aeruginosa [17]) [µg/mL] | MIC (Salmonella typhi [18]) [µg/mL] | zone of inhibition at 100 µg/disc (Staphylococcus aureus [19]) [mm] | zone of inhibition at 100 µg/disc (Proteus vulgaris [20]) [mm] | zone of inhibition at 100 µg/disc (Salmonella typhi [21]) [mm] | further results |
| --- | --- | --- | --- | --- | --- | --- | --- | --- | --- | --- | --- | --- | --- | --- | --- | --- | --- | --- | --- | --- | --- |
| COc1ccc(/C=N/c2ccc(Nc3nc(Oc4ccc5c(C)cc(=O)oc5c4)nc(N(C)C)n3)cc2)cc1 | 14 | 10 | 11 | 100 (≈ 191 µM) | 100 (≈ 191 µM) | 100 (≈ 191 µM) | 100 (≈ 191 µM) | 10 | 50 (≈ 95.7 µM) | 13 | 12 | 50 (≈ 95.7 µM) | 13 | 50 (≈ 95.7 µM) | 17 | 100 (≈ 191 µM) | 50 (≈ 95.7 µM) | 15 | 16 | 18 | MIC (Escherichia coli [7]): 100 µg/mL (≈ 191 µM); MIC (Bacillus subtilis [22]): 100 µg/mL (≈ 191 µM); zone of inhibition at 100 µg/disc (Aspergillus niger [23]): 16 mm; MIC (Shigella flexneri [24]): 100 µg/mL (≈ 191 µM) |
| Cc1cc(=O)oc2cc(Oc3nc(Nc4ccc(N5C(=O)CSC5c5ccccc5Br)cc4)nc(N(C)C)n3)ccc12 (configuration not stated) | 13 | 17 | 20 | 50 (≈ 77.5 µM) | 100 (≈ 155 µM) | 50 (≈ 77.5 µM) | 25 (≈ 38.7 µM) | 10 | 25 (≈ 38.7 µM) | 23 | 20 | 50 (≈ 77.5 µM) | 20 | 100 (≈ 155 µM) | 21 | 50 (≈ 77.5 µM) | 100 (≈ 155 µM) | 17 | 16 | 12 | MIC (Escherichia coli [7]): 100 µg/mL (≈ 155 µM); MIC (Bacillus subtilis [22]): 50 µg/mL (≈ 77.5 µM); zone of inhibition at 100 µg/disc (Aspergillus niger [23]): 19 mm; MIC (Shigella flexneri [24]): 100 µg/mL (≈ 155 µM) |
| Cc1cc(=O)oc2cc(Oc3nc(Nc4ccc(N5C(=O)CSC5c5ccc(O)cc5O)cc4)nc(N(C)C)n3)ccc12 (configuration not stated) | 22 | 20 | 19 | 50 (≈ 83.5 µM) | 25 (≈ 41.8 µM) | 12.5 (≈ 20.9 µM) | 25 (≈ 41.8 µM) | 23 | 12.5 (≈ 20.9 µM) | 21 | 18 | 50 (≈ 83.5 µM) | 20 | 50 (≈ 83.5 µM) | 22 | 50 (≈ 83.5 µM) | 12.5 (≈ 20.9 µM) | 22 | 19 | 24 | MIC (Escherichia coli [7]): 25 µg/mL (≈ 41.8 µM); MIC (Bacillus subtilis [22]): 25 µg/mL (≈ 41.8 µM); zone of inhibition at 100 µg/disc (Aspergillus niger [23]): 18 mm; MIC (Shigella flexneri [24]): 25 µg/mL (≈ 41.8 µM) |
| Cc1ccc(C2SCC(=O)N2c2ccc(Nc3nc(Oc4ccc5c(C)cc(=O)oc5c4)nc(N(C)C)n3)cc2)cc1 (configuration not stated) | 15 | 13 | 19 | 50 (≈ 86.1 µM) | 100 (≈ 172 µM) | 50 (≈ 86.1 µM) | 50 (≈ 86.1 µM) | 20 | 50 (≈ 86.1 µM) | 18 | 20 | 100 (≈ 172 µM) | 19 | 25 (≈ 43.1 µM) | 20 | 50 (≈ 86.1 µM) | 25 (≈ 43.1 µM) | 18 | 14 | 19 | MIC (Escherichia coli [7]): 100 µg/mL (≈ 172 µM); MIC (Bacillus subtilis [22]): 25 µg/mL (≈ 43.1 µM); zone of inhibition at 100 µg/disc (Aspergillus niger [23]): 20 mm; MIC (Shigella flexneri [24]): 25 µg/mL (≈ 43.1 µM) |
| COc1ccc(C2SCC(=O)N2c2ccc(Nc3nc(Oc4ccc5c(C)cc(=O)oc5c4)nc(N(C)C)n3)cc2)cc1 (configuration not stated) | 17 | 12 | 16 | 100 (≈ 168 µM) | 50 (≈ 83.8 µM) | 50 (≈ 83.8 µM) | 50 (≈ 83.8 µM) | 13 | 50 (≈ 83.8 µM) | 17 | 15 | 50 (≈ 83.8 µM) | 16 | 50 (≈ 83.8 µM) | 20 | 100 (≈ 168 µM) | 50 (≈ 83.8 µM) | 18 | 18 | 19 | MIC (Escherichia coli [7]): 100 µg/mL (≈ 168 µM); MIC (Bacillus subtilis [22]): 100 µg/mL (≈ 168 µM); zone of inhibition at 100 µg/disc (Aspergillus niger [23]): 19 mm; MIC (Shigella flexneri [24]): 100 µg/mL (≈ 168 µM) |
| Cc1cc(=O)oc2cc(Oc3nc(Nc4ccc(N5C(=O)CSC5c5ccc(Cl)cc5)cc4)nc(N(C)C)n3)ccc12 (configuration not stated) | 18 | 20 | 21 | 25 (≈ 41.6 µM) | 50 (≈ 83.2 µM) | 50 (≈ 83.2 µM) | 50 (≈ 83.2 µM) | 24 | 25 (≈ 41.6 µM) | 18 | 15 | 25 (≈ 41.6 µM) | 16 | 100 (≈ 166 µM) | 22 | 100 (≈ 166 µM) | 25 (≈ 41.6 µM) | 18 | 20 | 21 | MIC (Escherichia coli [7]): 50 µg/mL (≈ 83.2 µM); MIC (Bacillus subtilis [22]): 100 µg/mL (≈ 166 µM); zone of inhibition at 100 µg/disc (Aspergillus niger [23]): 15 mm; MIC (Shigella flexneri [24]): 12.5 µg/mL (≈ 20.8 µM) |
| CC(=O)N1CCN(c2ccc(OCC3COC(Cn4ccnc4)(c4ccc(Cl)cc4Cl)O3)cc2)CC1 (configuration not stated) [KETOCONAZOLE] | – | – | 31 | 1 (≈ 1.88 µM) | – | – | 1 (≈ 1.88 µM) | – | 1 (≈ 1.88 µM) | 29 | – | – | – | ≤ 3 | 33 | – | – | – | – | – | zone of inhibition at 100 µg/disc (Aspergillus niger [23]): 30 mm |
| O=C(O)c1cn(C2CC2)c2cc(N3CCNCC3)c(F)cc2c1=O [CIPROFLOXACIN] | 33 | 32 | – | – | 1 (≈ 3.02 µM) | 1 (≈ 3.02 µM) | – | 32 | – | – | 33 | 1 (≈ 3.02 µM) | 31 | – | – | 1 (≈ 3.02 µM) | 1 (≈ 3.02 µM) | 30 | 31 | 30 | MIC (Bacillus subtilis [22]): 1 µg/mL (≈ 3.02 µM); MIC (Shigella flexneri [24]): ≤ 3 µg/mL |
